Measured values taken from PMC8438664 (ACS Infectious Diseases, 2021).

Legend:
[1] = tested on: conditionally immortalized proximal tubule epithelial cells (ciPTECs) overexpressing OAT-1; test: ciPTEC cell viability assay; assay type: cell-based, human; settings: 24 h, relative mitochondrial activity (PrestoBlue)
[2] = lipid II of VanA or VanB positive strains; cited from earlier work

Q: Which “viability at a concentration of 1 mM” value [1] does the source give for `CN[C@H](CC(C)C)C(=O)N[C@H]1C(=O)N[C@@H](CC(N)=O)C(=O)N[C@H]2C(=O)N[C@H]3C(=O)N[C@H](C(=O)N[C@H](C(=O)O)c4cc(O)cc(O)c4-c4cc3ccc4O)[C@H](O)c3ccc(c(Cl)c3)Oc3cc2cc(c3O[C@@H]2O[C@H](CO)[C@@H](O)[C@H](O)[C@H]2O[C@H]2C[C@](C)(N)[C@H](O)[C@H](C)O2)Oc2ccc(cc2Cl)[C@H]1O` [Vancomycin] here?
A: Its value is greater than 50%.

Q: And the “fold reduction in binding affinity on mutation of D-Ala-D-Ala to D-Ala-D-Lac” value [2]?
A: Its value is greater than 1000 fold.
